# From ChEMBL document CHEMBL3885861, “Open TG-GATES”
# Species on record: Rattus norvegicus
# Test: Open TG-GATES - Regimen: Single
# Format: toxicity, organism-based, Sprague-Dawley
# Set-up: regimen Single, gender Male, age 6 weeks
# Details: in vivo, po, 24 h, route gavage; for Bas / Eos / Hb / Ht / Lym / MCH / MCHC / MCV / Mono / Neu / Plat / RBC / Ret / WBC: tissue Blood; for KIDNEY_L / KIDNEY_R / KIDNEY_TOTAL: tissue Kidney; for LIVER: tissue Liver; for A/G / ALP / ALT / AST / BUN / CRE / Ca / Cl / DBIL / GLC / IP / K / LDH / Na / PL / RALB / TBIL / TC / TG / TP / gamma-GTP: tissue Plasma
smiles,measurement,setting,value
O=NN1CCOCC1 [N-NITROSOMORPHOLINE],TERMINAL_BW,"0 mg/kg, dose level Control",228.1 g
same,Bas,"0 mg/kg, dose level Control",0%
same,Eos,"0 mg/kg, dose level Control",0.6%
same,Hb,"0 mg/kg, dose level Control",12.5 g/dL
same,Ht,"0 mg/kg, dose level Control",38.4%
same,Lym,"0 mg/kg, dose level Control",80%
same,MCH,"0 mg/kg, dose level Control",20.2 pg
same,MCHC,"0 mg/kg, dose level Control",32.5%
same,MCV,"0 mg/kg, dose level Control",62.2 fL
same,Mono,"0 mg/kg, dose level Control",2.2%
same,Neu,"0 mg/kg, dose level Control",16.4%
same,Plat,"0 mg/kg, dose level Control",122.3 x10_4/uL
same,RBC,"0 mg/kg, dose level Control",619.4 x10_4/ul
same,Ret,"0 mg/kg, dose level Control",8%
same,WBC,"0 mg/kg, dose level Control",73.5 x10_2/uL
same,KIDNEY_L,"0 mg/kg, dose level Control",1 g
same,KIDNEY_R,"0 mg/kg, dose level Control",1 g
same,KIDNEY_TOTAL,"0 mg/kg, dose level Control",2.1 g
same,LIVER,"0 mg/kg, dose level Control",10.8 g
same,A/G,"0 mg/kg, dose level Control",1
same,ALP,"0 mg/kg, dose level Control",1437.2 IU/L
same,ALT,"0 mg/kg, dose level Control",38.6 IU/L
same,AST,"0 mg/kg, dose level Control",65.2 IU/L
same,BUN,"0 mg/kg, dose level Control",15.9 mg/dL
same,CRE,"0 mg/kg, dose level Control",0.2 mg/dL
same,Ca,"0 mg/kg, dose level Control",10.8 mg/dL
same,Cl,"0 mg/kg, dose level Control",103.3 meq/L
same,DBIL,"0 mg/kg, dose level Control",0 mg/dL
same,GLC,"0 mg/kg, dose level Control",188 mg/dL
same,IP,"0 mg/kg, dose level Control",6.6 mg/dL
same,K,"0 mg/kg, dose level Control",4.4 meq/L
same,LDH,"0 mg/kg, dose level Control",152.8 IU/L
same,Na,"0 mg/kg, dose level Control",141.3 meq/L
same,PL,"0 mg/kg, dose level Control",162.4 mg/dL
same,RALB,"0 mg/kg, dose level Control",2.9 g/dL
same,TBIL,"0 mg/kg, dose level Control",0.006 mg/dL
same,TC,"0 mg/kg, dose level Control",81.8 mg/dL
same,TG,"0 mg/kg, dose level Control",144.6 mg/dL
same,TP,"0 mg/kg, dose level Control",5.7 g/dL
same,gamma-GTP,"0 mg/kg, dose level Control",1 IU/L
same,TERMINAL_BW,"100 mg/kg, dose level Low",215.1 g
same,Bas,"100 mg/kg, dose level Low",0%
same,Eos,"100 mg/kg, dose level Low",0.4%
same,Hb,"100 mg/kg, dose level Low",13.6 g/dL
same,Ht,"100 mg/kg, dose level Low",41.7%
same,Lym,"100 mg/kg, dose level Low",66.4%
same,MCH,"100 mg/kg, dose level Low",20.4 pg
same,MCHC,"100 mg/kg, dose level Low",32.7%
same,MCV,"100 mg/kg, dose level Low",62.4 fL
same,Mono,"100 mg/kg, dose level Low",3.8%
same,Neu,"100 mg/kg, dose level Low",27.8%
same,Plat,"100 mg/kg, dose level Low",110.9 x10_4/uL
same,RBC,"100 mg/kg, dose level Low",669.4 x10_4/ul
same,Ret,"100 mg/kg, dose level Low",7.6%
same,WBC,"100 mg/kg, dose level Low",88.5 x10_2/uL
same,KIDNEY_L,"100 mg/kg, dose level Low",1 g
same,KIDNEY_R,"100 mg/kg, dose level Low",1 g
same,KIDNEY_TOTAL,"100 mg/kg, dose level Low",2 g
same,LIVER,"100 mg/kg, dose level Low",9.2 g
same,A/G,"100 mg/kg, dose level Low",1.1
same,ALP,"100 mg/kg, dose level Low",1723.6 IU/L
same,ALT,"100 mg/kg, dose level Low",134.6 IU/L
same,AST,"100 mg/kg, dose level Low",347.6 IU/L
same,BUN,"100 mg/kg, dose level Low",18.8 mg/dL
same,CRE,"100 mg/kg, dose level Low",0.2 mg/dL
same,Ca,"100 mg/kg, dose level Low",10.8 mg/dL
same,Cl,"100 mg/kg, dose level Low",102 meq/L
same,DBIL,"100 mg/kg, dose level Low",0.046 mg/dL
same,GLC,"100 mg/kg, dose level Low",164.2 mg/dL
same,IP,"100 mg/kg, dose level Low",8 mg/dL
same,K,"100 mg/kg, dose level Low",4.3 meq/L
same,LDH,"100 mg/kg, dose level Low",883.2 IU/L
same,Na,"100 mg/kg, dose level Low",140.8 meq/L
same,PL,"100 mg/kg, dose level Low",141.4 mg/dL
same,RALB,"100 mg/kg, dose level Low",2.8 g/dL
same,TBIL,"100 mg/kg, dose level Low",0.084 mg/dL
same,TC,"100 mg/kg, dose level Low",73.4 mg/dL
same,TG,"100 mg/kg, dose level Low",34.1 mg/dL
same,TP,"100 mg/kg, dose level Low",5.4 g/dL
same,gamma-GTP,"100 mg/kg, dose level Low",0.9 IU/L
same,TERMINAL_BW,"300 mg/kg, dose level Middle",212.5 g
same,Bas,"300 mg/kg, dose level Middle",0%
same,Eos,"300 mg/kg, dose level Middle",0.6%
same,Hb,"300 mg/kg, dose level Middle",14.2 g/dL
same,Ht,"300 mg/kg, dose level Middle",43.1%
same,Lym,"300 mg/kg, dose level Middle",59.2%
same,MCH,"300 mg/kg, dose level Middle",20.9 pg
same,MCHC,"300 mg/kg, dose level Middle",32.9%
same,MCV,"300 mg/kg, dose level Middle",63.4 fL
same,Mono,"300 mg/kg, dose level Middle",3.2%
same,Neu,"300 mg/kg, dose level Middle",36.2%
same,Plat,"300 mg/kg, dose level Middle",115.8 x10_4/uL
same,RBC,"300 mg/kg, dose level Middle",680.2 x10_4/ul
same,Ret,"300 mg/kg, dose level Middle",7.6%
same,WBC,"300 mg/kg, dose level Middle",67.6 x10_2/uL
same,KIDNEY_L,"300 mg/kg, dose level Middle",1 g
same,KIDNEY_R,"300 mg/kg, dose level Middle",1 g
same,KIDNEY_TOTAL,"300 mg/kg, dose level Middle",1.9 g
same,LIVER,"300 mg/kg, dose level Middle",8.7 g
same,A/G,"300 mg/kg, dose level Middle",1.2
same,ALP,"300 mg/kg, dose level Middle",1483.8 IU/L
same,ALT,"300 mg/kg, dose level Middle",94.6 IU/L
same,AST,"300 mg/kg, dose level Middle",245.8 IU/L
same,BUN,"300 mg/kg, dose level Middle",15 mg/dL
same,CRE,"300 mg/kg, dose level Middle",0.2 mg/dL
same,Ca,"300 mg/kg, dose level Middle",10.7 mg/dL
same,Cl,"300 mg/kg, dose level Middle",101.9 meq/L
same,DBIL,"300 mg/kg, dose level Middle",0.038 mg/dL
same,GLC,"300 mg/kg, dose level Middle",172.6 mg/dL
same,IP,"300 mg/kg, dose level Middle",8.1 mg/dL
same,K,"300 mg/kg, dose level Middle",4.1 meq/L
same,LDH,"300 mg/kg, dose level Middle",426 IU/L
same,Na,"300 mg/kg, dose level Middle",140.4 meq/L
same,PL,"300 mg/kg, dose level Middle",115.4 mg/dL
same,RALB,"300 mg/kg, dose level Middle",3 g/dL
same,TBIL,"300 mg/kg, dose level Middle",0.064 mg/dL
same,TC,"300 mg/kg, dose level Middle",60.8 mg/dL
same,TG,"300 mg/kg, dose level Middle",31.5 mg/dL
same,TP,"300 mg/kg, dose level Middle",5.5 g/dL
same,gamma-GTP,"300 mg/kg, dose level Middle",1 IU/L
same,TERMINAL_BW,"600 mg/kg, dose level High",197.8 g
same,Bas,"600 mg/kg, dose level High",0%
same,Eos,"600 mg/kg, dose level High",1%
same,Hb,"600 mg/kg, dose level High",14.9 g/dL
same,Ht,"600 mg/kg, dose level High",44.9%
same,Lym,"600 mg/kg, dose level High",35%
same,MCH,"600 mg/kg, dose level High",20.6 pg
same,MCHC,"600 mg/kg, dose level High",33.3%
same,MCV,"600 mg/kg, dose level High",61.9 fL
same,Mono,"600 mg/kg, dose level High",2.4%
same,Neu,"600 mg/kg, dose level High",61.8%
same,Plat,"600 mg/kg, dose level High",103.6 x10_4/uL
same,RBC,"600 mg/kg, dose level High",727.4 x10_4/ul
same,Ret,"600 mg/kg, dose level High",7.5%
same,WBC,"600 mg/kg, dose level High",51.6 x10_2/uL
same,KIDNEY_L,"600 mg/kg, dose level High",0.9 g
same,KIDNEY_R,"600 mg/kg, dose level High",0.9 g
same,KIDNEY_TOTAL,"600 mg/kg, dose level High",1.8 g
same,LIVER,"600 mg/kg, dose level High",7.9 g
same,A/G,"600 mg/kg, dose level High",1.1
same,ALP,"600 mg/kg, dose level High",1527.2 IU/L
same,ALT,"600 mg/kg, dose level High",100.4 IU/L
same,AST,"600 mg/kg, dose level High",304 IU/L
same,BUN,"600 mg/kg, dose level High",13.9 mg/dL
same,CRE,"600 mg/kg, dose level High",0.1 mg/dL
same,Ca,"600 mg/kg, dose level High",10.5 mg/dL
same,Cl,"600 mg/kg, dose level High",101.5 meq/L
same,DBIL,"600 mg/kg, dose level High",0.022 mg/dL
same,GLC,"600 mg/kg, dose level High",174.4 mg/dL
same,IP,"600 mg/kg, dose level High",8 mg/dL
same,K,"600 mg/kg, dose level High",4.2 meq/L
same,LDH,"600 mg/kg, dose level High",476.8 IU/L
same,Na,"600 mg/kg, dose level High",139.4 meq/L
same,PL,"600 mg/kg, dose level High",105 mg/dL
same,RALB,"600 mg/kg, dose level High",3.1 g/dL
same,TBIL,"600 mg/kg, dose level High",0.044 mg/dL
same,TC,"600 mg/kg, dose level High",56.2 mg/dL
same,TG,"600 mg/kg, dose level High",25.4 mg/dL
same,TP,"600 mg/kg, dose level High",5.7 g/dL
same,gamma-GTP,"600 mg/kg, dose level High",1.1 IU/L
